In patent US11219625B2, “Inhibitors of N-linked glycosylation and methods using same” (YALE UNIVERSITY, priority 2015, dated 2022):
Values belong to the compound of their own block, whether it stands above or below them.

How the values were obtained:
[1] = Celltiter Glo viability assay, HEK293; assay type: cell-based; settings: human, HEK293 cells; HEK293, 72 h of compound exposure; read-out: Cytotoxicity Assay Mean EC50
Excerpt: (§1) The HTS approach using the bioluminescent N-linked glycosylation reporter (CCR 2011) in D54-ERLucT and D54-LucT cells has been previously described (Bennett, et al., Transl Oncol 2013, 6, 382-391). Briefly, the primary cell-based screen detects site occupancy of NLG sequons using a modified luciferase protein translated into the ER. […] The methodology for the primary (D54-ERlucT), secondary (D54-LucT), and tertiary (luciferase inhibition) screens as well and toxicity assays with CelltitreGlo are deposited in Pubchem (AID 588693).
(§2) To better understand the connection between structure and activity, analogs were prepared and tested in the D54-ERLucT cell based assay for inhibition of N-linked glycosylation (FIG. 1B). The assay was used to estimate and compare AC40 values among analogs and to guide the design of improved compounds that inhibited N-linked glycosylation. This effort generated 36 unique compounds with modifications to the amine component of the sulfonamide functionality (red), the pyrrolidine moiety (blue) or the methylaminothiazole group (green). Generally, incorporation of larger sulfonamides (i.e., larger secondary amines appended to the sulphone) was not well tolerated, resulting in erosion of potency (7 analogs). However, steric interactions could be mitigated by the introduction of a hydrogen bond accepting oxygen in a larger cyclic amine. Thus, morpholine was determined to be an acceptable surrogate for the dimethylamine component of the sulfonamide (FIGS. 1A-1D). The pyrrolidine group (blue) was replaced with various alkyl, cycloalkyl, and amine groups (7 compounds). The aminothiazole moiety was derivatized most extensively of all three regions (green highlighted area, 22 analogs). […] Analogs with the highest potency in the luciferase assay were retested with western blot analysis to insure that measurements of luciferase activation corresponded to loss of N-linked glycosylation.

N-linked glycosylation = experiment: D54-ERLucT cell based luciferase assay for inhibition of N-linked glycosylation; settings: D54-ERLucT cells, luciferase activation
Excerpt: as §1
The primary screen was developed in the D54 glioma cell line using a modified P. pyralis luciferase gene (ER-LucT) that is ER translated and glycosylated at three N-linked glycosylation consensus sequences. Glycosylation of the reporter inactivates luciferase enzymatic activity providing a robust methodology to detect inhibition of this process. D54 cells expressing a non-ER translated luciferase (LucT) insensitive to inhibition of N-linked glycoysation were used as a secondary screen for false positives. The primary screen was performed in duplicate and values were normalized to the average of positive control wells (Tunicamycin) minus averaged neutral vehicle treated wells per run. Compounds with replicate activity greater than three standard deviations above the mean average of control wells were selected for further study. A subset of 1,845 compounds met this criterion, and were advanced to simultaneous retesting in both the primary screen and a secondary (false positive) cell-based screen. […] Compounds were further triaged from consideration by consulting the Pubchem bioassay database and deprioritizing compounds showing a promiscuity rate higher than 5% across assays or by removing PAINS scaffolds (Baell, et al., J Med Chem 2010, 53, 2719-2740). Remaining compounds were assessed by medicinal chemistry review to score synthetic tractability and known issues with instability, poor solubility, or toxicity. This analysis yielded 39 compounds that were tested in a cell-free assay to detect luciferase inhibitors (Auld, et al., Proc Natl Acad Sci USA 2010, 107, 4878-4883) and by western blot analysis to detect gel mobility changes of the luciferase reporter, consistent with inhibition of N-linked glycosylation. This approach identified one aminobenzamidosulfonamide compound that blocked N-linked glycosylation.
as §2

[2] = Celltiter Glo viability assay, HepG2; assay type: cell-based; settings: human, HepG2 cells; HEPG2, 72 h of compound exposure; read-out: Cytotoxicity Assay Mean EC50
Excerpt: as §1, §2

HEK293 cells = experiment: Celltiter Glo viability assay, HEK293; assay type: cell-based; settings: HEK293 EC50 over NLG AC40
Excerpt: as §1, §2

HepG2 cells = experiment: Celltiter Glo viability assay, HepG2; assay type: cell-based; settings: HEPG2 EC50 over NLG AC40
Excerpt: as §1, §2

SMILES: CN(C)S(=O)(=O)c1ccc(N2CCCC2)c(C(=O)Nc2ccncc2)c1 [Entry 11, 5-(dimethylsulfamoyl)-N-pyridin-4-yl-2-pyrrolidin-1-ylbenzamide]
- EC50 at 72 h [1]: > 30 µM
- NLG Inhibition max act, % (N-linked glycosylation): 25%
- EC50 at 72 h [2]: > 30 µM

SMILES: CN(C)S(=O)(=O)c1ccc(N2CCCC2)c(C(=O)Nc2cccnc2)c1 [Entry 10, 5-(dimethylsulfamoyl)-N-pyridin-3-yl-2-pyrrolidin-1-ylbenzamide]
- EC50 at 72 h [1]: > 30 µM
- NLG Inhibition max act, % (N-linked glycosylation): 48.4%
- EC50 at 72 h [2]: > 30 µM

SMILES: Cc1ccccc1NC(=O)c1cc(S(=O)(=O)N(C)C)ccc1N1CCCC1 [Entry 13, 5-(dimethylsulfamoyl)-N-(2-methylphenyl)-2-pyrrolidin-1-ylbenzamide]
- EC50 at 72 h [1]: > 30 µM
- NLG Inhibition max act, % (N-linked glycosylation): 10.7%
- EC50 at 72 h [2]: > 30 µM

SMILES: COc1ccccc1NC(=O)c1cc(S(=O)(=O)N(C)C)ccc1N1CCCC1 [Entry 15, 5-(dimethylsulfamoyl)-N-(2-methoxyphenyl)-2-pyrrolidin-1-ylbenzamide]
- EC50 at 72 h [1]: > 30 µM
- NLG Inhibition max act, % (N-linked glycosylation): 30.1%
- EC50 at 72 h [2]: > 30 µM

- Selectivity (EC50/AC40) (HepG2 cells): >25.0
SMILES: Cc1ccc(NC(=O)c2cc(S(=O)(=O)N(C)C)ccc2N2CCCC2)cc1 [Entry 14, 5-(dimethylsulfamoyl)-N-(4-methylphenyl)-2-pyrrolidin-1-ylbenzamide]
- EC50 at 72 h [1]: > 30 µM
- Selectivity (EC50/AC40) (HEK293 cells): >25.0
- NLG Inhibition ASSAY Potency Mean AC40 (N-linked glycosylation): 1.2 µM
- NLG Inhibition max act, % (N-linked glycosylation): 305.0%
- EC50 at 72 h [2]: > 30 µM

- Selectivity (EC50/AC40) (HepG2 cells): >2.9
SMILES: COc1ccc(NC(=O)c2cc(S(=O)(=O)N(C)C)ccc2N2CCCC2)cc1 [Entry 16, 5-(dimethylsulfamoyl)-N-(4-methoxyphenyl)-2-pyrrolidin-1-ylbenzamide]
- EC50 at 72 h [1]: > 30 µM
- Selectivity (EC50/AC40) (HEK293 cells): >2.9
- NLG Inhibition ASSAY Potency Mean AC40 (N-linked glycosylation): 10.3 µM
- NLG Inhibition max act, % (N-linked glycosylation): 79.9%
- EC50 at 72 h [2]: > 30 µM

- Selectivity (EC50/AC40) (HepG2 cells): >2.3
SMILES: COc1ccc2nc(NC(=O)c3cc(S(=O)(=O)N(C)C)ccc3N3CCCC3)sc2c1 [Entry 9, 5-(dimethylsulfamoyl)-N-(6-methoxy-1,3-benzothiazol-2-yl)-2-pyrrolidin-1-ylbenzamide]
- EC50 at 72 h [1]: > 30 µM
- Selectivity (EC50/AC40) (HEK293 cells): >2.3
- NLG Inhibition ASSAY Potency Mean AC40 (N-linked glycosylation): 13.1 µM
- NLG Inhibition max act, % (N-linked glycosylation): 85.7%
- EC50 at 72 h [2]: > 30 µM

SMILES: CN(C)S(=O)(=O)c1ccc(N2CCCC2)c(C(=O)N2CCOCC2)c1 [Entry 21, N,N-Dimethyl-3-(morpholine-4-carbonyl)-4-(pyrrolidin-1-yl)benzenesulfonamide]
- EC50 at 72 h [1]: > 30 µM
- NLG Inhibition max act, % (N-linked glycosylation): 23.6%
- EC50 at 72 h [2]: > 30 µM

SMILES: CN(C)S(=O)(=O)c1ccc(N2CCCC2)c(C(=O)Nc2ccccc2Cl)c1 [Entry 19, 5-(dimethylsulfamoyl)-N-(2-chlorophenyl)-2-pyrrolidin-1-ylbenzamide]
- EC50 at 72 h [1]: > 30 µM
- NLG Inhibition max act, % (N-linked glycosylation): 24.7%
- EC50 at 72 h [2]: > 30 µM

- Selectivity (EC50/AC40) (HepG2 cells): >11.5
SMILES: CN(C)S(=O)(=O)c1ccc(N2CCCC2)c(C(=O)Nc2cccc(F)c2)c1 [Entry 18, 5-(dimethylsulfamoyl)-N-(3-fluorophenyl)-2-pyrrolidin-1-ylbenzamide]
- EC50 at 72 h [1]: > 30 µM
- Selectivity (EC50/AC40) (HEK293 cells): >11.5
- NLG Inhibition ASSAY Potency Mean AC40 (N-linked glycosylation): 2.6 µM
- NLG Inhibition max act, % (N-linked glycosylation): 107.7%
- EC50 at 72 h [2]: > 30 µM

SMILES: CN(C)S(=O)(=O)c1ccc(N2CCCC2)c(C(=O)NC2CCCCC2)c1 [Entry 22, N-cyclohexyl-5-(dimethylsulfamoyl)-2-pyrrolidin-1-ylbenzamide]
- EC50 at 72 h [1]: > 30 µM
- EC50 at 72 h [2]: > 30 µM

SMILES: CN(C)C(=O)c1cc(S(=O)(=O)N(C)C)ccc1N1CCCC1 [Entry 23, 5-(dimethylsulfamoyl)-N,N-dimethyl-2-pyrrolidin-1-ylbenzamide]
- EC50 at 72 h [1]: > 30 µM
- NLG Inhibition max act, % (N-linked glycosylation): 32.1%
- EC50 at 72 h [2]: > 30 µM

SMILES: CN(C)S(=O)(=O)c1ccc(N2CCCC2)c(C(=O)Nc2ccc(Br)cc2)c1 [Entry 20, 5-(dimethylsulfamoyl)-N-(4-bromophenyl)-2-pyrrolidin-1-ylbenzamide]
- EC50 at 72 h [1]: > 30 µM
- NLG Inhibition max act, % (N-linked glycosylation): 32%
- EC50 at 72 h [2]: > 30 µM

- Selectivity (EC50/AC40) (HepG2 cells): >27.8
SMILES: CN(C)S(=O)(=O)c1ccc(N2CCCC2)c(C(=O)Nc2ccccc2)c1 [Entry 12, 5-(dimethylsulfamoyl)-N-phenyl-2-pyrrolidin-1-ylbenzamide]
- EC50 at 72 h [1]: > 30 µM
- Selectivity (EC50/AC40) (HEK293 cells): >27.8
- NLG Inhibition ASSAY Potency Mean AC40 (N-linked glycosylation): 1.1 µM
- NLG Inhibition max act, % (N-linked glycosylation): 183.0%
- EC50 at 72 h [2]: > 30 µM

SMILES: CN(C)S(=O)(=O)c1ccc(N2CCCC2)c(C(=O)Nc2ccccc2F)c1 [Entry 17, 5-(dimethylsulfamoyl)-N-(2-fluorophenyl)-2-pyrrolidin-1-ylbenzamide]
- EC50 at 72 h [1]: > 30 µM
- EC50 at 72 h [2]: > 30 µM
